The test system of one data set is CRF/CRF-BP complexes. The data set can be described thus: ELISA of CRF/CRF-BP complex in NP-40 solubilized cerebrocortical brain tissue (FIG. 3). The settings on record: post-mortem controls and Alzheimer's disease patients. The data set is classed as binding, human. On the procedure:
FIG. 3 is a graph displaying the results of ELISAs testing the ability of a representative ligand inhibitor, Compound No. 35, to displace endogenous CRF from CRF-BP in brain tissue from Alzheimer's disease patients and normal controls.
Another ligand inhibitor, Compound No. 35, was tested for its ability to inhibit CRF/CRF-BP complexes in NP-40 solubilized human cerebrocortical brain tissue obtained postmortem from controls and Alzheimer disease patients. Briefly, 0.1-0.5 g of brain tissue was homogenized in phosphate-buffered saline containing 0.2% NP-40. The homogenate was clarified by centrifugation at 3000×g for 10 minutes. Supernatants were assayed by ELISA for the formation of CRF/CRF-BP complex in the presence or absence of Compound No. 35.

For a further data set, the target named is T1, human recombinant CRF-BP (Homo sapiens, UniProt P24387).
T1 construct: made in house
T1 sequence (P24387 25-322): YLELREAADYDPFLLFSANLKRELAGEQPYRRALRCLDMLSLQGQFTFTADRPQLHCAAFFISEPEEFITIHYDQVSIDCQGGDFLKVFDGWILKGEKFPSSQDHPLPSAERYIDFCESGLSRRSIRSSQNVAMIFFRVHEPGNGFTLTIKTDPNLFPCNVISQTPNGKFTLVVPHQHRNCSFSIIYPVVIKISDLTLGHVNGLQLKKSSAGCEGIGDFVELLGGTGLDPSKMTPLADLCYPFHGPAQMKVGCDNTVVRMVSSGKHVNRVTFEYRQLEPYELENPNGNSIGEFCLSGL
The data set can be described thus: LIRMA: displacement of 125I-h/rCRF from CRF-BP, Ki. Conditions: inhibitory binding affinity constant (Ki). The data set is classed as binding. On the procedure: In LIRMA CRF-BP isolated from brain tissue, serum, or cells expressing a recombinant form, is added to wells of a 96-well plate, to small polypropylene microfuge tubes, or to glass borosilicate tubes in a binding buffer (0.02% NP-40 in 50 mM phosphate-buffered saline). ^125 I-h/rCRF (New England Nuclear) and the candidate ligand inhibitor at 10 μM are added and the reaction is incubated for 1 hour at room temperature. An appropriately diluted anti-CRF-BP antibody, such as a rabbit anti-hCRF-BP (Potter et al., Proc. Natl. Acad. Sci. USA 89:4192-4196, 1992) is added to each tube, and after further incubation, bound complexes are precipitated by the further addition of a goat anti-rabbit antibody. The precipitate containing ^125 I-CRF is collected by centrifugation and the amount of radioactivity in the pellet is determined by a gamma counter. If the candidate ligand inhibitor displaces CRF from CRF-BP, the pellets will contain less radioactivity in comparison to controls in which no candidate peptide is added. Maximum inhibition (i.e., 100%) of the binding of ^125 I-h/rCRF to the CRF-BP is defined by the amount of radioactivity left in the pellets after incubation with 10 μM of the CRF-BP peptide ligand h/rCRF (6-33). Thus, the binding potency of the candidate ligand inhibitor will be measured relative to the potency of the standard h/rCRF (6-33).
Thus, a ligand having a Ki of less than that of hCRF will bind more strongly to hCRF-BP than will hCRF itself, and a ligand having a higher value will have a relatively lower binding affinity.
The assay is performed in 600 μl polypropylene microfuge tubes or a 96-well plate. First, 50 μl of a 250 ng/ml of purified recombinant CRF-BP is added to 150 μl of PBS binding buffer (50 mM sodium phosphate, 0.15M NaCl, and 0.02% NP-40). Next, ^125 I-h/r CRF at a final concentration of 200 pM and 50 μl of a 10-100 μM concentration of the ligand inhibitor are added and incubated for 1 hour at room temperature. To the reaction, 50 μl of anti-CRF-BP antibody, 5144, diluted 1:1000 with assay buffer is added to each tube and allowed to bind for a further 1 hour at room temperature. The total volume in all tubes is adjusted to 300 μl with assay buffer. Bound complexes are precipitated by the addition of 200 μl of preprecipitated goat anti-rabbit (GAR) second antibody at 1:20 in 1% normal rabbit serum, 4% PEG, 50 mM sodium phosphate, 0.1% sodium azide, followed by incubation for 1 hour at room temperature. The antibody-bound ^125 I-CRF precipitate is then collected by centrifugation (3000×g) at 4° C. for 20 minutes in a Beckman GS-15R centrifuge. Using a Beckman Biomer 1000 robotic workstation, the tubes are aspirated and washed once with 600 μl of PBS plus 0.02% NP-40. Tubes containing the pellets are then transferred to 12×74 mm counting tubes and counted in a gamma counter.
Inhibitory binding affinity constant (Ki) values are determined using the method of Munson et al., Anal. Biochem. 107:220, 1980.

A short description of data set [1]: Automated passive avoidance learning. The data set is classed as in vivo, rat. Conditions: oral, 5 minutes after training period; FIGS. 5A, 5B. On the procedure:
FIGS. 5A and 5B are graphs depicting the effect of administration of representative ligand inhibitors of this invention, Compound Nos. 97-1 and 153, respectively. The ligand inhibitors were administered 5 minutes post-training period in the passive avoidance test.
The apparatus for both rats and mice is the same as used in active avoidance testing (see Example 14).
For the training trial, the animal is placed individually in one compartment of the learning apparatus, which is separated from a second compartment by a guillotine door. Following a three minute habituation period, the door is opened and the latency to enter the second compartment is recorded. When the animal enters with all four paws, the door is closed, and a 0.5 second AC footshock (Coulburn precision shocker) is delivered. After five seconds, the subject is removed and placed in its home cage. At the time of testing (usually 1-7 days later), the animal is returned to the compartment in which it was initially placed for the learning trial, the door is opened and the latency to enter the second compartment is recorded, but the animal is not shocked. […]
For most strains of rats with weights between 150 and 350 grams, an effective footshock intensity ranges from 0.2-1.0 mA. […] The latency time of rats to enter the dark compartment is measured. […]

The conditions of data set [2]: human, in vivo; cited from earlier work.
The test system of the next data set is CRF receptors. Conditions: rat, in vivo; cited from earlier work.
Data set [3] concerns CRF receptors (rat anterior pituitary cells). The data set can be described thus: ACTH secretion from rat anterior pituitary cells (CRF agonist/antagonist activity). The data set is classed as cell-based. Conditions: for CRF agonist activity relative to standard oCRF: oCRF arbitrarily 1.0. On the procedure:
Candidate ligand inhibitors may be screened for their ability to displace CRF from the CRF/CRF-BP complex by biological assay or by in vitro assay. One suitable biological assay is the measurement of ACTH release from cultured pituitary cells. This assay is performed in the following manner. Anterior pituitary glands from rats are washed six times with sterile HEPES buffer and transferred to a solution containing collagenase. After subsequent transfer to a 25 ml Bellco dispersion flask, the pituitaries are stirred for 30 minutes at 37° C., triturated, incubated for a further 30 minutes, and again triturated. The partially dispersed cells are then collected by centrifugation. The cell pellet is resuspended in 10 ml of neuraminidase and again collected by centrifugation. The pellet is reconstituted in 25 ml of BBM-P (BBM (Irvine Scientific) plus 100 μg/L, cortisol, 1 μg/L insulin, 0.1 μg/L EGF2, 0.4 μg/L T3, 0.7 μg/L PTH, 10 μg/L glucagon, and 2% fetal bovine serum), centrifuged again, and the resultant pellet is finally reconstituted in BBM-P. The cells are then plated at a density of 50,000-100,000/well in a 48 well plate and incubated for 2 days. On the day of assay the cells are washed once with BBM-T in preparation for stimulation with the peptide candidates or CRF. Cells are stimulated with a maximally stimulating dose of h/rCRF (1 nM) and ACTH release is measured by RIA or immunoradiometric assay. When a blocking concentration of CRF-BP is added, the amount of ACTH that is released is reduced and expressed as a fraction of the maximal release. The ligand inhibitor is added at various doses. The potency of the peptide in displacing CRF from CRF-BP is measured by the amount of ACTH release expressed as a fraction of the maximal release caused by CRF given alone.
An additional assay using rat anterior pituitary cells to measure ACTH secretion can be carried out to determine whether a ligand inhibitor functions as a CRF agonist of hCRF receptors. […] Antagonistic action may be determined by performing the assay in the presence of a challenge dose of CRF. […]

Another data set deals with human CRF-BP. The settings on record: cited from earlier work.
The conditions of data set [4]: cited from earlier work.

Ends that are not written are not given here.

In general, Ki refers to the equilibrium dissociation constant of an inhibitor or competing ligand from its target.

Take `O=c1oc2ccc(Cl)cc2c(O)c1C=Nc1nc2ccccc2s1` [Compound 35]: the “inhibition of formation of CRF/CRF-BP complexes in brain tissue” value in the data set on CRF/CRF-BP complexes is “inhibits formation of CRF/CRF-BP complexes in brains of controls and Alzheimer's disease patients”.

For the compound `O=c1c(C=Nc2nc3ccccc3[nH]2)c(O)n(CCCc2ccccc2)c(=S)n1CCCc1ccccc1` [Compound 97-1], the Ki at human recombinant CRF-BP was under 50 nM. The “latency time to entering the dark compartment” value in data set [1] is given as “increase in medium latency time”.

Regarding `Nc1c2c(nc3ccccc13)CCCC2` [Tacrine], in data set [2], the “memory improvement in Alzheimer's patients” value is recorded as “only marginal memory improvement” and the side effects entry is “elevating liver enzymes”.

As for `CN1[C@@H]2CC[C@H]1C[C@@H](OC(=O)C(CO)c1ccccc1)C2` (some centres unmarked) [atropine], in the data set on CRF receptors, the “CRF receptors after treatment” value was “increase in CRF receptors”.

On to `CC(NC(C)(C)C)C(=O)c1cccc(Cl)c1` (centres unmarked) [bupropion], for which the side effects result in data set [2] is “convulsions”.

For the compound `CNCCC(Oc1ccc(C(F)(F)F)cc1)c1ccccc1` (centres unmarked) [fluoxetine], the side effects entry in data set [2] was “suicidality”.

As for “hCRF (6-33): CRF-BP peptide ligand h/rCRF (6-33) (ISLDLTFHLLREVLEMARAEQLAQQAHS; Corticoliberin; UniProt P06850 159-186, looked up, fragment)”, in data set [3], the CRF antagonist activity result is recorded as “does not exhibit substantial CRF antagonist activity” and the “CRF agonist activity relative to standard oCRF” value is “less than 0.1%”.

Take “hCRF (9-33): The peptide hCRF (9-33) (DLTFHLLREVLEMARAEQLAQQAHS; Corticoliberin; UniProt P06850 162-186, looked up, fragment)”: in data set [3], the “CRF agonist activity relative to standard oCRF” value is recorded as “less than 0.01%”.

Consider “urocortin: the human neuropeptide urocortin (DNPSLSIDLTFHLLRTLLELARTQSQRERAEQNRIIFDSV; ends and bridges not checked; UniProt P55089 83-122, looked up)”, for which the “affinity for CRF-BP” value in the data set with human CRF-BP was “high affinity”. Besides, the feeding behavior result in data set [4] (animals) is “significantly suppress feeding behavior in animals”. Also, in data set [4] (in vivo), the blood pressure result is recorded as “lowering blood pressure”.

Values taken from patent publication US5959109A, “Compounds and methods for increasing endogenous levels of corticotropin-releasing factor” (Neurocrine Biosciences, Inc., priority 1996, dated 1999).
